The text below walks through data of ChEMBL document CHEMBL5291721, “A preclinical secondary pharmacology resource illuminates target-adverse drug reaction associations of marketed drugs” (Nat Commun, 2023).

For test [1], the target named is Beta-2 adrenergic receptor (Homo sapiens, UniProt P07550). It is filed as functional, cell-based.
Test [2] addresses Voltage-dependent L-type calcium channel subunit alpha-1C (Rattus norvegicus, UniProt P22002). It is filed as functional.
Test [3] addresses Gamma-aminobutyric acid receptor subunit alpha-1 (Rattus norvegicus, UniProt P62813).
In test [4] the target is T1, 5-hydroxytryptamine receptor 1A (Homo sapiens, UniProt P08908).
T1 sequence (P08908 whole entry): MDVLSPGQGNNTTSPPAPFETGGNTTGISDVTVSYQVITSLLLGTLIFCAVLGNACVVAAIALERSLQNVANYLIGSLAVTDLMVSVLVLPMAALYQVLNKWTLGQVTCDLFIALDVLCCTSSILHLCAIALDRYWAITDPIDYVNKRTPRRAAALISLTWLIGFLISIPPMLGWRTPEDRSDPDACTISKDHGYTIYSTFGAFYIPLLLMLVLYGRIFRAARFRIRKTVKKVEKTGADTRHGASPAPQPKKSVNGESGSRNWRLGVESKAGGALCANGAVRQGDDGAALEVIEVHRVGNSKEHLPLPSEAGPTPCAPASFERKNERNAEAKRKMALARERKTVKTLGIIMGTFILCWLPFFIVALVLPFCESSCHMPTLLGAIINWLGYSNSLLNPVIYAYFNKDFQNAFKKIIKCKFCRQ
Type of test: functional, cell-based.

In test [5] the target is Voltage-gated inwardly rectifying potassium channel KCNH2 (Homo sapiens, UniProt Q12809). It is filed as functional. The conditions noted are these: read-out: AC50.
The target in test [6] is 3',5'-cyclic-AMP phosphodiesterase 4D (Homo sapiens, UniProt Q08499). Type of test: functional.
The next test concerns the target T2, Progesterone receptor (Homo sapiens, UniProt P06401).
T2 sequence (P06401 whole entry): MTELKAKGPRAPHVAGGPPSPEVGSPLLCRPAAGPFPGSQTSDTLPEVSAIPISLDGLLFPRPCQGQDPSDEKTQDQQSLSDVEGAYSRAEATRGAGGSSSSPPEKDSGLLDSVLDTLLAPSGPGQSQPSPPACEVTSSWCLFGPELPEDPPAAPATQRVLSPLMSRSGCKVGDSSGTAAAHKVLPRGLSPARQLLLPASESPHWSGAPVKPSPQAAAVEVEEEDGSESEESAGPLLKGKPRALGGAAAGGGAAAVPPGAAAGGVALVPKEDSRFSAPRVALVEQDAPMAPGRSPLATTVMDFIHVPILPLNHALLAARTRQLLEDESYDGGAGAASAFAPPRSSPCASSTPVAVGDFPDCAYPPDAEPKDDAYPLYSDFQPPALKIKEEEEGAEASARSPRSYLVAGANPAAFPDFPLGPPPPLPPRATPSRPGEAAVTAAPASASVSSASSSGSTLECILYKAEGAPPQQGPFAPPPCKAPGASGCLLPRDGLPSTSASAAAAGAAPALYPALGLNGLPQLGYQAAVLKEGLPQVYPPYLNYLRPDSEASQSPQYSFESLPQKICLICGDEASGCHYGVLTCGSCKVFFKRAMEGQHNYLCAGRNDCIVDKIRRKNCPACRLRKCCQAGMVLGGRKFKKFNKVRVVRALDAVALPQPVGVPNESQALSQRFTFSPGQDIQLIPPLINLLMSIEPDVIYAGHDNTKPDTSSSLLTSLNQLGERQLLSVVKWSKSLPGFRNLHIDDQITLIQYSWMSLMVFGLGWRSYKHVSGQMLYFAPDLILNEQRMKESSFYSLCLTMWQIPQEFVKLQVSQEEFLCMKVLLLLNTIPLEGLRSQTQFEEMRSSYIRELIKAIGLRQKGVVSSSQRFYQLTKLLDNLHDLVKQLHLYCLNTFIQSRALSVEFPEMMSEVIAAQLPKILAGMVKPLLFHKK
It is filed as functional.

Test [7] has as its target T3, Mu-type opioid receptor (Homo sapiens, UniProt P35372).
A further test deals with Acetylcholinesterase (Homo sapiens, UniProt P22303). It is filed as functional.
Test [8] deals with T4, Muscarinic acetylcholine receptor M1 (Homo sapiens, UniProt P11229).
T4 sequence (P11229 whole entry): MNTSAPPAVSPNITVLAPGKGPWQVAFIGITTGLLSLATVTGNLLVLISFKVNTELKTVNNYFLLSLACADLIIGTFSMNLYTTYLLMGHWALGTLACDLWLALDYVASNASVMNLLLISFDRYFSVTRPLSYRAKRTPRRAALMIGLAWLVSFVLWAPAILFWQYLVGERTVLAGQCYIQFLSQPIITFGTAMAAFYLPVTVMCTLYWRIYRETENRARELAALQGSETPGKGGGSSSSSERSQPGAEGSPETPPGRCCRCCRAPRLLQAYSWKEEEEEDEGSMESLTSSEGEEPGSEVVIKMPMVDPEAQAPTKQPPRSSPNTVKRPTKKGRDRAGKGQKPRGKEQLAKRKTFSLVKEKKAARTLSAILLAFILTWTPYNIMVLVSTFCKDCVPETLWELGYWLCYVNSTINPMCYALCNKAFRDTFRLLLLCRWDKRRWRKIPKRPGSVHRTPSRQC
Type of test: functional, cell-based.

In another test the target is Histamine H3 receptor (Homo sapiens, UniProt Q9Y5N1).
The target in test [9] is T3, Mu-type opioid receptor. The source holds these as a separate data set.
Test [10] has as its target Prostaglandin G/H synthase 1 (Homo sapiens, UniProt P23219). Type of test: functional.
Note: assay procedure not described here.

Voltage-gated inwardly rectifying potassium channel KCNH2, sequence (Q12809 whole entry): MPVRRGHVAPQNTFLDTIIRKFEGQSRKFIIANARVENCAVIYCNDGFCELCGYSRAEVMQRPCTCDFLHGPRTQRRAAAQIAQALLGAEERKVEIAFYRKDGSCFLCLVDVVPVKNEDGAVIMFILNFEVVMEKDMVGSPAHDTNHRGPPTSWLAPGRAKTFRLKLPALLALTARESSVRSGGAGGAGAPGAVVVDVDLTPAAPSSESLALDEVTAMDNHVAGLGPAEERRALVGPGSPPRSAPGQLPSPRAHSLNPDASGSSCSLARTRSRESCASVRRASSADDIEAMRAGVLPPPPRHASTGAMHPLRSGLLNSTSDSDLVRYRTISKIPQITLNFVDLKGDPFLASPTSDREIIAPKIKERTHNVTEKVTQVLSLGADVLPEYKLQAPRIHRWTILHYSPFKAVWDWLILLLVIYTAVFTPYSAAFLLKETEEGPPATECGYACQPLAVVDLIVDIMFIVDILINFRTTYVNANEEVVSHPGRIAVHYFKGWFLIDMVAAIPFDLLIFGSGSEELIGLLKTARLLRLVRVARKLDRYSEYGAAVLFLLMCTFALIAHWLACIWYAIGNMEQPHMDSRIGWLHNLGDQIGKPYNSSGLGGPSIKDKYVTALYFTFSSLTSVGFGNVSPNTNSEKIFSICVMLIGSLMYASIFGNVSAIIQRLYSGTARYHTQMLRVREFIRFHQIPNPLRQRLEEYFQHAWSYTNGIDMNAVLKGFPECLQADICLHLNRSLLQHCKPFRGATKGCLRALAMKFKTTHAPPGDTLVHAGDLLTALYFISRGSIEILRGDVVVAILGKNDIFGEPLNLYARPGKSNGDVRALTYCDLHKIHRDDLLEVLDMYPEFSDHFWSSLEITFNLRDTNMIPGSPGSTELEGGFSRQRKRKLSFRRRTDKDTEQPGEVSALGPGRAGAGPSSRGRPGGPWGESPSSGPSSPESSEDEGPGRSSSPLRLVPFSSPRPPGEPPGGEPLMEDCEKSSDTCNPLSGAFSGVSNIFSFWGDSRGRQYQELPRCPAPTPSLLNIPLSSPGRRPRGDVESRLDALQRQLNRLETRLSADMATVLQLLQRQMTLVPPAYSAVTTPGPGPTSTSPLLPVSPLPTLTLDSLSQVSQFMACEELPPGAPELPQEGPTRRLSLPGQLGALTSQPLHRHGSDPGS
3',5'-cyclic-AMP phosphodiesterase 4D, sequence (Q08499 whole entry): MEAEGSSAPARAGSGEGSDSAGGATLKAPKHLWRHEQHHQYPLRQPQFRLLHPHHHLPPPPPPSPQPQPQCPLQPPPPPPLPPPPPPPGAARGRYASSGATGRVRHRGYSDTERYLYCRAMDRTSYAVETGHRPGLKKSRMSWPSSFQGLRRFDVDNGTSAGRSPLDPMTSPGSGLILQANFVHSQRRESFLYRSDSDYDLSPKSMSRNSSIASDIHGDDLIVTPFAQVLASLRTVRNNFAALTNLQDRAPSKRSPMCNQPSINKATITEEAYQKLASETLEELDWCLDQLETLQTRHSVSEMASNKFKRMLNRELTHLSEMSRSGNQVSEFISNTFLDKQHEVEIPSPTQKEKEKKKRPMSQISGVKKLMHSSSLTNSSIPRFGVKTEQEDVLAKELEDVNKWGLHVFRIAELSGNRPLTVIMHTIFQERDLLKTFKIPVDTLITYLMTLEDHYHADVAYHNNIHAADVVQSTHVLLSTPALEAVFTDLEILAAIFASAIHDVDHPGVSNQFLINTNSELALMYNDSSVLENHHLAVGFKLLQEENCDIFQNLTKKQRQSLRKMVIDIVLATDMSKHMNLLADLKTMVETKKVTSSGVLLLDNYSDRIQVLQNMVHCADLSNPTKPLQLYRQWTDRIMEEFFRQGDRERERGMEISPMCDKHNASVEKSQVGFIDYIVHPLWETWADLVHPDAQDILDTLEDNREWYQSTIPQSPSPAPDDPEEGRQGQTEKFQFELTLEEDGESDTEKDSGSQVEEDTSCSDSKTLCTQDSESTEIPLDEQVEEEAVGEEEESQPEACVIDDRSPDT
Gamma-aminobutyric acid receptor subunit alpha-1, sequence (P62813 whole entry): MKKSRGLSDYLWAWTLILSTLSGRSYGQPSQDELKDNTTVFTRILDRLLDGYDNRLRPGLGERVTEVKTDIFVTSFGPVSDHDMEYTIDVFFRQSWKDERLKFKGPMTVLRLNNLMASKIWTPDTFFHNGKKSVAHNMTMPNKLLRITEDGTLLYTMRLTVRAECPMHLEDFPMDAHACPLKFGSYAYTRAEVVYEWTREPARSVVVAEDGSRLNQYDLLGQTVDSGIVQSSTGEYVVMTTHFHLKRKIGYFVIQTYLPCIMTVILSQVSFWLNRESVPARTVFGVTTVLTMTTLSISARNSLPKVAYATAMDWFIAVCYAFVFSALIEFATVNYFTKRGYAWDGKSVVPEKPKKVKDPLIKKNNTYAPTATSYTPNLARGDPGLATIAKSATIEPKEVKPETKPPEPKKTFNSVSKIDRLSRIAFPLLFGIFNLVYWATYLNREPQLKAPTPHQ
Voltage-dependent L-type calcium channel subunit alpha-1C, sequence (P22002 whole entry): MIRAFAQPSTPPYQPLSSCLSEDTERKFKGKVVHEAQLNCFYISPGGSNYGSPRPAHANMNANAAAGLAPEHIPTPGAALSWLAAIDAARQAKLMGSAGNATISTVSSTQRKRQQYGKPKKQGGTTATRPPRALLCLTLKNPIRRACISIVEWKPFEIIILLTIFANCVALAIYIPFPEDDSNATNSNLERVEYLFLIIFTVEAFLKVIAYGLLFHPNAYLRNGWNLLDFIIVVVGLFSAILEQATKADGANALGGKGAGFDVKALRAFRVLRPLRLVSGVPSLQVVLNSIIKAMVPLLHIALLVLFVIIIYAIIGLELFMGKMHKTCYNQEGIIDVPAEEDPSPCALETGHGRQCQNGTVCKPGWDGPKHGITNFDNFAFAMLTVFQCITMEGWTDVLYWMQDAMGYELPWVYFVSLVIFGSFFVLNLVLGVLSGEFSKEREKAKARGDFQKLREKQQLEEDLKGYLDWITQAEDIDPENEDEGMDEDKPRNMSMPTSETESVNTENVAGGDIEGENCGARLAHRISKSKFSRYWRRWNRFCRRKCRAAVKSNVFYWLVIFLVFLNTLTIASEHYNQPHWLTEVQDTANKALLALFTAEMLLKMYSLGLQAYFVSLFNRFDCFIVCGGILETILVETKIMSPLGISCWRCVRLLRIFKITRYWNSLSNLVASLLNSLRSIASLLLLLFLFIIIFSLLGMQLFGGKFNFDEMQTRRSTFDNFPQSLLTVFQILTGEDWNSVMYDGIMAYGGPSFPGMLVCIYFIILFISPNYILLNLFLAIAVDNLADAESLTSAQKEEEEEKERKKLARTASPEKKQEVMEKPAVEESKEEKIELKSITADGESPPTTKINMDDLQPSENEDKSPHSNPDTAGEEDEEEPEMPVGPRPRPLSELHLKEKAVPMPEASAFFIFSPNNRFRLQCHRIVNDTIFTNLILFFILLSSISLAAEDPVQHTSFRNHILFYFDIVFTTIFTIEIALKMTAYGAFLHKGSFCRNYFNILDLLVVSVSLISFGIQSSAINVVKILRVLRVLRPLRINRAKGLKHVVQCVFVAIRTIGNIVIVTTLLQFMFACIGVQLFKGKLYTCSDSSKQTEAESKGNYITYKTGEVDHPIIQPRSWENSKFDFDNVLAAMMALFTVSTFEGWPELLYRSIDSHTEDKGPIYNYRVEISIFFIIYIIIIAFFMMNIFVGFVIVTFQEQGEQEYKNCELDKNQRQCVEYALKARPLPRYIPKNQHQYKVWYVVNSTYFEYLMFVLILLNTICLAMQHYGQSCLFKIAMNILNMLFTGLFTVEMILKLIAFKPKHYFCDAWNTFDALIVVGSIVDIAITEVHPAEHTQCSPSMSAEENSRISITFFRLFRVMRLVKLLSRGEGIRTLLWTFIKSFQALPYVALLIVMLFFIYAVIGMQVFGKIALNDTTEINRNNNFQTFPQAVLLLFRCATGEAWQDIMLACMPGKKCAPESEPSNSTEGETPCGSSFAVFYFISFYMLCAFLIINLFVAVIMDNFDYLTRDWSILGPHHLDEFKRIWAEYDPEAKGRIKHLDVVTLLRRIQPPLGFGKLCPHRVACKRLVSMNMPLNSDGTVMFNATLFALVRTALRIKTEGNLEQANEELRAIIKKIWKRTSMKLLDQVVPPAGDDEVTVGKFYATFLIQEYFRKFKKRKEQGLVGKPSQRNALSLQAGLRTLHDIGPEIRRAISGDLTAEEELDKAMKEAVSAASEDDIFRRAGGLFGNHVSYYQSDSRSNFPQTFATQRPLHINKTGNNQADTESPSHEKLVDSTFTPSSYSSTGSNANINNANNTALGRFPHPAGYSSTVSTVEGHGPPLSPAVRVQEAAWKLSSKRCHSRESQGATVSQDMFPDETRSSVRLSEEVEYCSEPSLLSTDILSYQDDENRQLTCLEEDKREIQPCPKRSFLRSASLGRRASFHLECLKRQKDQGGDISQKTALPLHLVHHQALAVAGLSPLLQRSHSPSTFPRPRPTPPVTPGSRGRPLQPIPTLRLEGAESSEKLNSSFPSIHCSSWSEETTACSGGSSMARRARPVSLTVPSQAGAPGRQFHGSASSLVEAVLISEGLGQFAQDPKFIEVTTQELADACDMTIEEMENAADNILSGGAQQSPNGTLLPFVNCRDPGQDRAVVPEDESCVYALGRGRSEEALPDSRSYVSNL
T3 sequence (P35372 whole entry): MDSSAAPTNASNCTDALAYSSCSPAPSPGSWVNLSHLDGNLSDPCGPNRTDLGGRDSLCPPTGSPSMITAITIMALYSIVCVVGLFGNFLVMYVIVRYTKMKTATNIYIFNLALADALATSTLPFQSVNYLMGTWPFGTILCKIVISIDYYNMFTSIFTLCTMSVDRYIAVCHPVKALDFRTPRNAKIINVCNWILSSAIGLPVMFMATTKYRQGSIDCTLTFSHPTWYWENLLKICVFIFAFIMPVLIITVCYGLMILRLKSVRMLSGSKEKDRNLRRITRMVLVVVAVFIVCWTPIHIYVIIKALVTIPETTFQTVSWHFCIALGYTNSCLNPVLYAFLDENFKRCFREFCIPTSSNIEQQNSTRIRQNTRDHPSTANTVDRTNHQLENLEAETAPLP

As to `[H]/N=C(\N/C(=N/[H])NCCCCCCNC(=N)NC(=N)Nc1ccc(Cl)cc1)Nc1ccc(Cl)cc1` [CHLORHEXIDINE], the AC50 was above 30 µM in test [1]; above 10 µM in [2]; above 10 µM in [3]; above 30 µM in test [4]; 16.3 µM in test [5]; above 10 µM in test [6]. For the same molecule, the AC50 was above 30 µM on Progesterone receptor and 13 µM at Mu-type opioid receptor [7].

`COC(=O)[C@H](c1ccccc1Cl)N1CCc2sccc2C1` [CLOPIDOGREL]: the AC50 in [1] was above 30 µM; in test [2], above 30 µM; in test [3], above 30 µM; in test [4], above 30 µM; in test [5], 26.1 µM; in test [6], above 30 µM. Moreover, the AC50 at Progesterone receptor was above 30 µM; on Mu-type opioid receptor [7], 13 µM.

With `C#Cc1cccc(Nc2ncnc3cc(OCCOC)c(OCCOC)cc23)c1` [ERLOTINIB], the half-maximal activity concentration (AC50) is above 30 µM at Acetylcholinesterase; above 30 µM in test [1]; 1640 nM in [8]; above 30 µM on Histamine H3 receptor; above 30 µM in [4]; above 30 µM in test [5]. In addition, the AC50 is 3.82 µM at Mu-type opioid receptor [9]; above 30 µM in test [6]; above 30 µM on Progesterone receptor; 38.8 nM in test [10]; 29 µM on Mu-type opioid receptor [7].

Turning to `CC(C)C[C@H](CN)CC(=O)O` [PREGABALIN], the AC50 in [1], in test [2], in [3], in [4], in test [5] and in [6] was above 30 µM in each case. The AC50 at Progesterone receptor and at Mu-type opioid receptor [7] was above 30 µM in each case.

Turning to `CCCN(CCC)CCc1cccc2c1CC(=O)N2` [ROPINIROLE], the AC50 was above 30 µM in test [1]; above 10 µM in test [2]; above 10 µM in test [3]; above 30 µM in test [4]; above 30 µM in test [6]; above 30 µM on Progesterone receptor. Also, the AC50 on Mu-type opioid receptor [7] came out at 9.67 µM.

As for `CC(C)N(CCCCOCC(=O)NS(C)(=O)=O)c1cnc(-c2ccccc2)c(-c2ccccc2)n1` [SELEXIPAG], the AC50 in test [1] is above 30 µM; in test [2], above 30 µM; in test [3], above 30 µM; in test [4], above 30 µM; in test [5], above 30 µM; in [6] it was 4.81 µM. Also, the AC50 at Progesterone receptor and at Mu-type opioid receptor [7] was above 30 µM in each case.

Usually AC50 stands for the concentration giving half of the maximal activity seen.
